Experimental data published in patent publication US7015196B1, “Basic monocyclic compounds having Nk2 antagonist action, processes for their preparation, and formulations containing them” (Menarini Ricerche S.p.A., priority 1999, dated 2006).

Columns and labels:
human NK2 receptor = target: T1, human NK2 receptor (Homo sapiens, UniProt P21452); test: binding test, [125I]NKA competition on membranes of CHO cells transfected with the NK2 receptor of human ileum; conditions: CHO cell membranes, [125I]NKA 100 pM, 30 min, 20° C.
T1 construct: expressed in transfected cells; host or cells: CHO cells (membranes)
T1 sequence (P21452 1-398): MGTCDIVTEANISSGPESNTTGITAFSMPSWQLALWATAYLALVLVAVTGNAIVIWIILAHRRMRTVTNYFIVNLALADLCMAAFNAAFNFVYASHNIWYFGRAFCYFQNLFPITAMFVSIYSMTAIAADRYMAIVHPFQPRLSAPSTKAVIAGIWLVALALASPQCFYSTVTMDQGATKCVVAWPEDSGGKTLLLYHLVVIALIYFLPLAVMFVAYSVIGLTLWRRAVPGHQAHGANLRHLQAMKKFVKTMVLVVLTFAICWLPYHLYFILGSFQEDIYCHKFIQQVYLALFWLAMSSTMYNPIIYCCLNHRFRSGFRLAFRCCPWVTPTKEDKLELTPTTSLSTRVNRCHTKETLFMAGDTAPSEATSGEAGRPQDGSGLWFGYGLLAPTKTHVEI
Protocol: (§1) The compounds described in the present invention act as antagonists to the NK2 receptor of tachykinins. The biological activity was evaluated in three in vitro functional tests, using rabbit pulmonary artery (RPA), hamster trachea (HT) and rat urinary bladder (RUB), according to the methods described by C. A. Maggi et al., Br. J. Pharmacol., 1990, 100, 588; P. D'Orleans-Juste et al., Eur. J. Pharmacol., 1986, 125, 37; and C. A. Maggi et al., J. Pharmacol. Exp. Ther., 1988, 246, 308. The affinity of the compounds for the human NK2 receptor was evaluated in a binding test using membranes of Chinese hamster ovary (CHO) cells transfected with the NK2 receptor of human ileum and the radioligand [^125I]NKA (Amersham, […] 2000 Ci/mmol) at the concentration of 100 pM in competition studies. The substances under examination were tested in a concentration range between 0.01 nM and […]. At the end of incubation (30 min, 20° C.) the test specimens were filtered, and radioactivity was determined using a gamma-counter.
(§2) The data emerging from the functional studies were expressed as pA2 (O. Arunlakshana and H. O. Shild, Br. J. Pharmacol. Chemother., 1959, 14, 45), and the data emerging from the binding studies were expressed as pKi (log Ki calculated with the LIGAND program; P. J. Munson et al., Anal. Biochem., 1980, 107, 220).

[1] = target: T2, NK2 receptor of tachykinins (Rattus norvegicus, UniProt P16610); test: in vitro functional test, rat urinary bladder (RUB); format: cell-based; conditions: for Kb: read-out: pA2 RUB (converted)
T2 construct: from tissue; host or cells: rat urinary bladder
T2 sequence (P16610 1-390): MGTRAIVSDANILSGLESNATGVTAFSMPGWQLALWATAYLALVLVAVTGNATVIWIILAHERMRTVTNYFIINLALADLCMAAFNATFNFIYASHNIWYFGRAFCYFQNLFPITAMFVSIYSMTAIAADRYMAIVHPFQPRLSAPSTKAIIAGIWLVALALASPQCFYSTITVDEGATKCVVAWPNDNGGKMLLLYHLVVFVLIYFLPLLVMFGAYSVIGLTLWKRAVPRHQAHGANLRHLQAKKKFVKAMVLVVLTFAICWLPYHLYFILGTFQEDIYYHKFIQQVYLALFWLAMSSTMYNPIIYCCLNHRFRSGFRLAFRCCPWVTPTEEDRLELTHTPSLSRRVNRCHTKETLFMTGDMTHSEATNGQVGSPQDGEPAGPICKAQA
Protocol: as §1, §2

[2] = target: T3, NK2 receptor of tachykinins (Oryctolagus cuniculus, UniProt P79218); test: in vitro functional test, rabbit pulmonary artery (RPA); format: cell-based; conditions: read-out: pA2 RPA (converted)
T3 construct: from tissue; host or cells: rabbit pulmonary artery
T3 sequence (P79218 1-384): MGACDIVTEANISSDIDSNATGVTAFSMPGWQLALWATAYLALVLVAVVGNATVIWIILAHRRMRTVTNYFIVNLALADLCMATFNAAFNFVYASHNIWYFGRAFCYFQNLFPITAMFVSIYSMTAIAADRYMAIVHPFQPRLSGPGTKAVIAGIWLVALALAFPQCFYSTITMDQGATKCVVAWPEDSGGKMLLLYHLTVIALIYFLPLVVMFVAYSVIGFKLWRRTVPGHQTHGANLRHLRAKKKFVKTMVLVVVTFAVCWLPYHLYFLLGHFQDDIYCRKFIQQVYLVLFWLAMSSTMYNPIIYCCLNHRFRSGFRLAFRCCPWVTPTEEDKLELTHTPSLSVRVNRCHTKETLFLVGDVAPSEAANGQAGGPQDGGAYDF
Protocol: as §1, §2

[3] = target: T4, NK2 receptor of tachykinins (Mesocricetus auratus, UniProt P51144); test: in vitro functional test, hamster trachea (HT); format: cell-based; conditions: read-out: pA2 HT (converted)
T4 construct: from tissue; host or cells: hamster trachea
T4 sequence (P51144 1-384): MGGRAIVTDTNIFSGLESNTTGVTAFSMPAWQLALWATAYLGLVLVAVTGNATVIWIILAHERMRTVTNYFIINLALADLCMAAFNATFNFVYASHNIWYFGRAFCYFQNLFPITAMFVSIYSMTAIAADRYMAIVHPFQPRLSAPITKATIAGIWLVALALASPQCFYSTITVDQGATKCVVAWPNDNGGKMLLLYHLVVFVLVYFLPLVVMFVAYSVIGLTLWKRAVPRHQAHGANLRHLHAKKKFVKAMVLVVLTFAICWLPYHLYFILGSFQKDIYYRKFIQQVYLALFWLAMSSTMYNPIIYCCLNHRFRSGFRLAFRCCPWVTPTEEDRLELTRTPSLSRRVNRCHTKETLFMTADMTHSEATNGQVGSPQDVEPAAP
Protocol: as §1, §2

Row | Compound | pKi (human NK2 receptor) | Ki (human NK2 receptor) | Kb [1] | Kb [2] | Kb [3] | pA2 RUB [1]
1 | O=C1C[C@@H](NC(=O)CN2CCC(N3CCOCC3)CC2)C(=O)NC(Cc2c[nH]c3ccc(F)cc23)C(=O)NC(Cc2ccccc2)C(=O)N[C@H](Cc2ccccc2)CN1 (stereo partly drawn) [Example 4, cyclo{-Suc[1-(R)-2(4-morpholinyl-4-piperidinyl-1-yl-acetyl)amino]-Trp-(5-F)-Phe-[(R)-N H—CH(CH2—C6H5)—CH2NH]-}] | 10.1 |  |  |  |  | 9.7
2 | O=C1C[C@@H](NC(=O)CN2CCC(N3CCCCC3)CC2)C(=O)NC[C@@H](Cc2ccccc2)NC(=O)[C@H](Cc2ccccc2)NC(=O)[C@H](Cc2c[nH]c3ccccc23)N1 [Example 1, cyclo{-Suc[1-(R)-2(1,4′)-bipiperidinyl-1′-yl-acetyl amino]-Trp-Phe-[(R)—NH—CH(CH2—C6H5)—CH2NH]-}] | 9.4 |  | 0.631 nM | 2 nM | 1.58 nM | 
3 | O=C1C[C@@H](NC(=O)CN2CCC(N3CCCCC3)CC2)C(=O)NC(Cc2c[nH]c3ccccc23)C(=O)NC(Cc2ccc(F)cc2)C(=O)N[C@H](Cc2ccccc2)CN1 (stereo partly drawn) [Example 3, cyclo{-Suc[1-(R)-2(1,4′)-bipiperidinyl-1′-yl-acetyl amino]-Trp-Phe-(4-F)-[(R)—NH—CH(CH2—C6H5)—CH2NH]-}] | 9.6 |  |  |  |  | 9.3

Further lines, with some results ahead:

Row | pKi (human NK2 receptor) | Ki (human NK2 receptor) | Kb [1] | Kb [2] | Kb [3] | Compound | pA2 RUB [1]
4 |  | 0.2 nM | 0.158 nM |  |  | O=C1C[C@@H](NC(=O)CN2CCC(N3CCOCC3)CC2)C(=O)NC[C@@H](Cc2ccccc2)NC(=O)[C@H](Cc2ccccc2)NC(=O)[C@H](Cc2c[nH]c3ccccc23)N1 [Example 2, cyclo{-Suc[1-(R)-2(4-morpholin-4-yl-piperidin-1-yl)-acetyl amino]-Trp-Phe-[(R)—NH—CH(CH2—C6H5)—CH2NH]-}] | 
5 |  | 0.316 nM |  |  |  | O=C1CC(C(=O)N2CCC(N3CCCCC3)CC2)C(=O)NCC(Cc2ccccc2)NC(=O)C(Cc2ccccc2)NC(=O)C(Cc2c[nH]c3ccccc23)N1 (single isomer, unassigned) [Example 8, cyclo{-Suc[1-(S or R)-(1,4′)-bipiperidinyl-1′-carbonyl]-Trp-Phe[(R)—NH—CH(CH2—C6H5)—CH2NH]-}] | 
6 |  | 0.0501 nM | 0.794 nM |  |  | O=C1CC(C(=O)N2CCC(N3CCCCC3)CC2)C(=O)NCC(Cc2ccccc2)NC(=O)C(Cc2ccccc2)NC(=O)C(Cc2c[nH]c3ccccc23)N1 (single isomer, unassigned) [Example 7, cyclo{-Suc[1-(R or S)-(1,4′)-bipiperidinyl-1′-carbonyl]-Trp-Phe[(R)—NH—CH(CH2—C6H5)—CH2NH]-}] | 
